Consider 2 compounds from article PMC5890689 (RSC Advances, 2018).

Structures are written as SMILES. Like-named read-outs stand apart in the source and are kept apart here.

Experiment [1] relates to KB (nasopharyngeal carcinoma). To be noted: SRB assay; cited from earlier work. (In general: The SRB assay estimates cell density from bound dye.)
The test system of experiment [2] is A549 (lung cancer). To be noted: read-out: GI50 A549; SRB assay; cited from earlier work.
The test system of experiment [3] is KB-vin (vincristine-resistant KB subline). To be noted: SRB assay; cited from earlier work.
For experiment [4], the system named is KB (nasopharyngeal carcinoma). Kind of experiment: SRB assay, KB. To be noted: SRB assay, 3 days, mean ± SD of three.
Experiment [5] has as its system KB-vin (vincristine-resistant KB subline). Kind of experiment: SRB assay, KB-vin. To be noted: 3 days, mean ± SD of three.
Experiment [6] concerns MDA-MB-231 (human breast carcinoma cell line). Briefly: SRB assay, MDA-MB-231. To be noted: MDA-MB-231, 72 h, read-out: GI50 MDA-MB-231.
Experiment [7] deals with MCF-7 (Michigan Cancer Foundation-7). Kind of experiment: SRB assay, MCF-7. To be noted: Homo sapiens, MCF7, 72 h, read-out: GI50 MCF-7.
Experiment [8] deals with A549 (lung cancer). Kind of experiment: SRB assay, A549. To be noted: Homo sapiens, A549, 72 h, read-out: GI50 A549.

For orientation: GI50 means the concentration that inhibits growth by half. Consider `CN1CC[C@H](c2c(O)cc(O)c3c(=O)cc(-c4ccccc4Cl)oc23)[C@H](O)C1` [FVP, Flavopiridol], for which the “GI50 KB” value in experiment [1] is 160 ± 10 nM. The GI50 in experiment [2] was 140 ± 10 nM. Besides, the “GI50 KB-vin” value in experiment [3] was 180 ± 10 nM.

On to `CC(=O)O[C@H]1C(=O)[C@@]2(C)[C@H]([C@H](OC(=O)c3ccccc3)[C@]3(O)C[C@H](OC(=O)[C@H](O)[C@@H](NC(=O)c4ccccc4)c4ccccc4)C(C)=C1C3(C)C)[C@]1(OC(C)=O)CO[C@@H]1C[C@@H]2O` [Paclitaxel, reference compound], for which the “GI50 KB” value in experiment [4] is 4.94 ± 0.21 nM. In experiment [5], the “GI50 KB-vin” value was 1518.36 ± 141.54 nM. In addition, the concentration for 50% growth inhibition (GI50) in experiment [6] amounted to 7.76 ± 0.39 nM; in experiment [7] it was 8.78 ± 0.79 nM; in experiment [8] it was 5.98 ± 0.4 nM.
